{
  "source": "patent US9879250B2",
  "about": "“Protein-stabilizing agent and protein-stabilizing method” (NOF CORPORATION, priority 2014, dated 2018)",
  "experiment": "Dissolution in phosphate buffer when preparing the protein stabilization solution",
  "assay_type": "physicochemical",
  "details": "phosphate buffer (pH 7.4)",
  "experimental": "Two protein stabilizer solutions were prepared by dissolving the compound produced in Synthesis Example 1 in a phosphate buffer (pH 7.4) in such a manner that the final concentrations were controlled at 1.000% by mass (Example 1-1-1) and 0.100% by mass (Example 1-1-2) shown in Table 1 respectively.\nPreparation of a protein stabilization solution was tested in the same manner as Example 1-1 except for using the compound produced in Comparative Synthesis Example 1. However, the compound produced in Comparative Synthesis Example 1 was not dissolved in the phosphate buffer, so that the protein stabilization effect could not evaluated.",
  "data": [
    {"smiles": "CCCCCCCCCCCCCCCCCCCCSCC(C)C(=O)OCCOP(=O)([O-])OCC[N+](C)(C)C", "note": "(stereo not shown) [Comparative Synthesis Example 1, 2-[3-(eicosasulfanyl)-2-methylpropionyloxy]ethyl-2-(trimethylammonio)ethyl phosphate]", "values": [
      {"measurement": "Dissolution in the phosphate buffer", "value": "not dissolved"}
    ]}
  ]
}
